We go through seven cell lines from the supplement of paper PMC10307832.

What all share (test): relative viability (nuclei count vs DMSO), 5 days (fraction); higher = more cells survive
Compound in the test “Linsitinib + Olaparib”: C[C@]1(O)C[C@@H](c2nc(-c3ccc4ccc(-c5ccccc5)nc4c3)c3c(N)nccn32)C1 [Linsitinib] + O=C(c1cc(Cc2n[nH]c(=O)c3ccccc23)ccc1F)N1CCN(C(=O)C2CC2)CC1 [Olaparib] (partner 8 µM)
The essentials: (§1)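 The day after seeding in 1536-well plates, lung cancer cell lines were treated by pin tool with a single drug, or with a fixed anchor-drug dose together with five library-drug doses (not always all listed) in √10 steps. After 5 days, a combined fix-and-stain solution (final 0.05% Triton X-100, 1% formaldehyde, 1 ug/ml Hoechst) was added. Nuclei counted on 4× images gave relative viability as treated counts over vehicle counts, reported as the median of duplicate plates.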

Compound in the test “Linsitinib + Phenformin”: C[C@]1(O)C[C@@H](c2nc(-c3ccc4ccc(-c5ccccc5)nc4c3)c3c(N)nccn32)C1 [Linsitinib] + N=C(N)NC(=N)NCCc1ccccc1 [Phenformin] (partner 250 µM)
The method in brief:
as §1

Compound in the test “Ispinesib + Crizotinib”: Cc1ccc(C(=O)N(CCCN)[C@@H](c2nc3cc(Cl)ccc3c(=O)n2Cc2ccccc2)C(C)C)cc1 [Ispinesib] + C[C@@H](Oc1cc(-c2cnn(C3CCNCC3)c2)cnc1N)c1c(Cl)ccc(F)c1Cl [Crizotinib] (partner 1 µM)
The method in brief:
as §1

Compound in the test “Ispinesib + Phenformin”: Cc1ccc(C(=O)N(CCCN)[C@@H](c2nc3cc(Cl)ccc3c(=O)n2Cc2ccccc2)C(C)C)cc1 [Ispinesib] + N=C(N)NC(=N)NCCc1ccccc1 [Phenformin] (partner 250 µM)
The method in brief:
as §1

As to LXF-289, the relative viability with Linsitinib + Olaparib (first compound 0.01 µM) is 1.11; in the test with Linsitinib + Olaparib (first compound 0.03162 µM) it was 1.13; with Linsitinib + Olaparib (first compound 0.1 µM), 1.17; with Linsitinib + Olaparib (first compound 0.3162 µM), 0.797; with Linsitinib + Olaparib (first compound 1 µM) it was 1.05; with Linsitinib + Phenformin (first compound 0.01 µM), 0.5. Besides, the relative viability is 0.448 with Linsitinib + Phenformin (first compound 0.03162 µM); 0.523 in the test with Linsitinib + Phenformin (first compound 0.1 µM); 0.471 with Linsitinib + Phenformin (first compound 1 µM); 0.798 in the test with Ispinesib + Crizotinib (first compound 0.001 µM); 0.815 with Ispinesib + Crizotinib (first compound 0.003162 µM); 0.888 with Ispinesib + Crizotinib (first compound 0.01 µM). Also, the relative viability stood at 0.759 with Ispinesib + Crizotinib (first compound 0.03162 µM); 0.397 with Ispinesib + Crizotinib (first compound 0.1 µM); 0.515 with Ispinesib + Phenformin (first compound 0.001 µM); 0.527 with Ispinesib + Phenformin (first compound 0.003162 µM); 0.541 in the test with Ispinesib + Phenformin (first compound 0.01 µM); 0.392 with Ispinesib + Phenformin (first compound 0.03162 µM). In addition, the relative viability in the test with Ispinesib + Phenformin (first compound 0.1 µM) was 0.0531.

Consider NCI-H358, for which the relative viability with Linsitinib + Olaparib (first compound 0.01 µM) was found to be 0.585; with Linsitinib + Olaparib (first compound 0.03162 µM), 0.64; in the test with Linsitinib + Olaparib (first compound 0.1 µM), 0.602; with Linsitinib + Olaparib (first compound 0.3162 µM) it was 0.47; with Linsitinib + Olaparib (first compound 1 µM), 0.333; with Linsitinib + Phenformin (first compound 0.01 µM), 0.304. Moreover, the relative viability was determined as 0.273 in the test with Linsitinib + Phenformin (first compound 0.03162 µM); 0.306 in the test with Linsitinib + Phenformin (first compound 0.1 µM); 0.228 with Linsitinib + Phenformin (first compound 0.3162 µM); 0.207 with Linsitinib + Phenformin (first compound 1 µM); 0.617 with Ispinesib + Crizotinib (first compound 0.001 µM); 0.515 in the test with Ispinesib + Crizotinib (first compound 0.003162 µM). Besides, the relative viability with Ispinesib + Crizotinib (first compound 0.01 µM) worked out at 0.665; in the test with Ispinesib + Crizotinib (first compound 0.03162 µM) it was 0.409; with Ispinesib + Crizotinib (first compound 0.1 µM), 0.424; with Ispinesib + Phenformin (first compound 0.001 µM), 0.391; with Ispinesib + Phenformin (first compound 0.003162 µM), 0.351; with Ispinesib + Phenformin (first compound 0.01 µM), 0.266. In addition, the relative viability in the test with Ispinesib + Phenformin (first compound 0.03162 µM) stood at 0.102; in the test with Ispinesib + Phenformin (first compound 0.1 µM) it was 0.0986.

In the case of A549, the relative viability turned out to be 0.344 with Linsitinib + Olaparib (first compound 0.01 µM); 0.376 with Linsitinib + Olaparib (first compound 0.03162 µM); 0.384 in the test with Linsitinib + Olaparib (first compound 0.1 µM); 0.244 with Linsitinib + Olaparib (first compound 0.3162 µM); 0.195 with Linsitinib + Olaparib (first compound 1 µM); 0.2 with Linsitinib + Phenformin (first compound 0.01 µM). In addition, the relative viability in the test with Linsitinib + Phenformin (first compound 0.03162 µM) was determined as 0.264; in the test with Linsitinib + Phenformin (first compound 0.1 µM) it was 0.173; with Linsitinib + Phenformin (first compound 0.3162 µM), 0.0926; with Linsitinib + Phenformin (first compound 1 µM), 0.151; with Ispinesib + Crizotinib (first compound 0.001 µM), 0.88; with Ispinesib + Crizotinib (first compound 0.003162 µM) it was 0.903. In addition, the relative viability in the test with Ispinesib + Crizotinib (first compound 0.01 µM) stood at 0.849; with Ispinesib + Crizotinib (first compound 0.03162 µM), 0.0553; with Ispinesib + Crizotinib (first compound 0.1 µM) it was 0.181; with Ispinesib + Phenformin (first compound 0.001 µM) it was 0.12; in the test with Ispinesib + Phenformin (first compound 0.003162 µM), 0.18; in the test with Ispinesib + Phenformin (first compound 0.01 µM) it was 0.899. For the same cell line, the relative viability amounted to 0.0923 with Ispinesib + Phenformin (first compound 0.03162 µM) and 0.048 with Ispinesib + Phenformin (first compound 0.1 µM).

In the case of NCI-H1993, the relative viability in the test with Linsitinib + Olaparib (first compound 0.01 µM) came out at 1.09; with Linsitinib + Olaparib (first compound 0.03162 µM) it was 0.692; in the test with Linsitinib + Olaparib (first compound 0.1 µM), 0.879; with Linsitinib + Olaparib (first compound 0.3162 µM) it was 0.698; with Linsitinib + Olaparib (first compound 1 µM), 0.982; in the test with Linsitinib + Phenformin (first compound 0.01 µM), 0.523. Moreover, the relative viability came out at 0.465 in the test with Linsitinib + Phenformin (first compound 0.03162 µM); 0.572 with Linsitinib + Phenformin (first compound 0.1 µM); 0.526 with Linsitinib + Phenformin (first compound 0.3162 µM); 0.526 with Linsitinib + Phenformin (first compound 1 µM); 0.837 with Ispinesib + Crizotinib (first compound 0.001 µM); 0.914 with Ispinesib + Crizotinib (first compound 0.003162 µM). Also, the relative viability worked out at 0.874 with Ispinesib + Crizotinib (first compound 0.01 µM); 0.891 with Ispinesib + Crizotinib (first compound 0.03162 µM); 0.661 with Ispinesib + Crizotinib (first compound 0.1 µM); 0.537 in the test with Ispinesib + Phenformin (first compound 0.001 µM); 0.483 in the test with Ispinesib + Phenformin (first compound 0.003162 µM); 0.543 with Ispinesib + Phenformin (first compound 0.01 µM). The relative viability with Ispinesib + Phenformin (first compound 0.03162 µM) was 0.518; in the test with Ispinesib + Phenformin (first compound 0.1 µM) it was 0.436.

Regarding NCI-H727, the relative viability with Linsitinib + Olaparib (first compound 0.01 µM) was 0.694; with Linsitinib + Olaparib (first compound 0.03162 µM) it was 0.773; with Linsitinib + Olaparib (first compound 0.1 µM) it was 0.747; with Linsitinib + Olaparib (first compound 0.3162 µM), 0.449; in the test with Linsitinib + Olaparib (first compound 1 µM) it was 0.601; with Linsitinib + Phenformin (first compound 0.01 µM), 0.562. The relative viability with Linsitinib + Phenformin (first compound 0.03162 µM) worked out at 0.489; in the test with Linsitinib + Phenformin (first compound 0.1 µM) it was 0.483; in the test with Linsitinib + Phenformin (first compound 0.3162 µM) it was 0.503; with Linsitinib + Phenformin (first compound 1 µM), 0.422; with Ispinesib + Crizotinib (first compound 0.003162 µM) it was 0.943; in the test with Ispinesib + Crizotinib (first compound 0.01 µM) it was 1.02. The relative viability with Ispinesib + Crizotinib (first compound 0.03162 µM) was found to be 0.632; with Ispinesib + Crizotinib (first compound 0.1 µM) it was 0.408; in the test with Ispinesib + Phenformin (first compound 0.001 µM), 0.601; in the test with Ispinesib + Phenformin (first compound 0.003162 µM), 0.6; with Ispinesib + Phenformin (first compound 0.01 µM), 0.385; with Ispinesib + Phenformin (first compound 0.03162 µM), 0.466. In addition, in the test with Ispinesib + Phenformin (first compound 0.1 µM), the relative viability amounted to 0.309.

For LOU-NH91, the relative viability with Linsitinib + Olaparib (first compound 0.01 µM) amounted to 0.911; with Linsitinib + Olaparib (first compound 0.03162 µM), 0.841; in the test with Linsitinib + Olaparib (first compound 0.1 µM) it was 0.941; with Linsitinib + Olaparib (first compound 0.3162 µM), 0.857; in the test with Linsitinib + Olaparib (first compound 1 µM) it was 0.903; with Linsitinib + Phenformin (first compound 0.01 µM) it was 0.739. The relative viability with Linsitinib + Phenformin (first compound 0.03162 µM) turned out to be 0.714; with Linsitinib + Phenformin (first compound 0.1 µM) it was 0.722; with Linsitinib + Phenformin (first compound 0.3162 µM), 0.651; in the test with Linsitinib + Phenformin (first compound 1 µM) it was 0.632; with Ispinesib + Crizotinib (first compound 0.001 µM), 0.764; with Ispinesib + Crizotinib (first compound 0.003162 µM) it was 0.744. The relative viability stood at 0.706 with Ispinesib + Crizotinib (first compound 0.01 µM); 0.671 with Ispinesib + Crizotinib (first compound 0.03162 µM); 0.536 in the test with Ispinesib + Crizotinib (first compound 0.1 µM); 0.708 with Ispinesib + Phenformin (first compound 0.001 µM); 0.753 in the test with Ispinesib + Phenformin (first compound 0.003162 µM); 0.774 in the test with Ispinesib + Phenformin (first compound 0.01 µM). The relative viability with Ispinesib + Phenformin (first compound 0.03162 µM) is 0.563; with Ispinesib + Phenformin (first compound 0.1 µM) it was 0.262.

For NCI-H1975, the relative viability in the test with Linsitinib + Olaparib (first compound 0.01 µM) was found to be 0.775; in the test with Linsitinib + Olaparib (first compound 0.03162 µM), 0.678; in the test with Linsitinib + Olaparib (first compound 0.1 µM), 0.737; in the test with Linsitinib + Olaparib (first compound 0.3162 µM), 0.645; with Linsitinib + Olaparib (first compound 1 µM), 0.584; with Linsitinib + Phenformin (first compound 0.01 µM) it was 0.396. Moreover, the relative viability with Linsitinib + Phenformin (first compound 0.03162 µM) came out at 0.417; with Linsitinib + Phenformin (first compound 0.1 µM) it was 0.413; in the test with Linsitinib + Phenformin (first compound 0.3162 µM), 0.38; with Linsitinib + Phenformin (first compound 1 µM), 0.396; in the test with Ispinesib + Crizotinib (first compound 0.001 µM), 1.09; with Ispinesib + Crizotinib (first compound 0.003162 µM) it was 1.02. In addition, the relative viability with Ispinesib + Crizotinib (first compound 0.01 µM) turned out to be 1.08; with Ispinesib + Crizotinib (first compound 0.03162 µM), 0.491; in the test with Ispinesib + Crizotinib (first compound 0.1 µM) it was 0.205; with Ispinesib + Phenformin (first compound 0.001 µM) it was 0.448; with Ispinesib + Phenformin (first compound 0.003162 µM) it was 0.412; in the test with Ispinesib + Phenformin (first compound 0.01 µM), 0.458. The relative viability in the test with Ispinesib + Phenformin (first compound 0.03162 µM) was determined as 0.164; with Ispinesib + Phenformin (first compound 0.1 µM), 0.11.
